# “Also recorded” adds a separate entry of the source.
# What was measured:
# [1] = test system: MDA-MB-231 and SUM159; test: Immunoblot of phospho-Erk; type: cell-based; settings: DPM-1001 1-2 μM
# From the text: Equal quantities of lysates were isolated from indicated cell lines and then resolved by SDS-PAGE and immunoblotted with one of the following primary antibodies: mouse anti-MEK1/2, rabbit anti-p-PAK1, rabbit anti-PAK1, rabbit anti-ERK1/2, rabbit anti-phospho(Ser 217/221)-MEK1/2, rabbit anti-phospho(Thr 202/Tyr 204)-ERK1/2, rabbit anti-phospho (Ser 338)-c-RAF, rabbit anti-RAF, rabbit anti-phospho (Ser 112)-BAD and rabbit anti-BAD (Cell Signaling Technology), mouse anti-β-actin (Sigma), followed by detection with one of the following horseradish peroxidase-conjugated secondary antibodies: goat anti-rabbit IgG, goat anti-mouse IgG (Invitrogen), mouse anti-rabbit light-chain-specific IgG (Jackson ImmunoResearch Laboratories) using enhanced chemiluminescence (ECL; GE Healthcare) or SuperSignal West Femto Chemiluminescent substrate (Pierce) detection reagents.
# [2] = Glucose tolerance and insulin tolerance tests; type: in vivo, C57Bl6/J mice; settings: HFD-fed mice, orally or intraperitoneally
# Description: (§1) All protocols were approved by the Institutional Animal Use and Care Committee of Cold Spring Harbor laboratory. 10 week-old male mice fed chow diet or high-fat diet (D12492) were acclimatized for 10 days under standard conditions before experiments. Mice were injected intraperitoneally (i.p.) once daily with vehicle, 5 mg/kg of DPM-1001 intraperitoneally or orally for 50 days. Mice were euthanized after 6 h of fasting, and serum samples were collected to measure the metabolic parameters and tissue samples were collected for studying changes in signaling.
# Glucose in tail blood was measured using a glucometer (One-Touch Basic; Lifescan, CA). For glucose tolerance tests (GTTs), mice were fasted for 10 hours and then injected 20% D-glucose (2 mg/g body weight) and the blood glucose was monitored immediately before and at 15, 30, 60 and 120 mins following the injection. For insulin tolerance tests (ITTs), 4-h fasted animals were given insulin (0.75 mU/g) and blood glucose was measured immediately before and at 30, 60 and 120 minutes postinjection. Statistical analysis was performed using ANOVA for both GTT and ITT.
# [3] = test system: ATP7B-knockdown HepG2 cells; test: Copper-induced toxicity, MTT cell survival; type: cell-based; settings: DPM-1001 2 μM; ATP7B-knockdown HepG2
# Description: HepG2 cells purchased from ATCC were cultured in RPMI media containing 10% FBS, 5% CO2 at 37 C. Control (AG09319) and Wilson's disease patient-derived fibroblasts (GM00032, GM00033, GM05257, GM12158, GM05798 and GM11778) were obtained from Coriell Biorepository and cultured in DMEM, 10% FBS, 5% CO2 at 37° C.
# For cell survival assays, 10,000 cells were seeded in a 96 well plate and cultured until fully confluent (90%). To these cells, ATP7B siRNAs or scrambled siRNA (negative control) purchased from Qiagen and Santa Cruz Biotechnology were transfected. Lipofectamine RNAiMAX reagent (Thermofischer) and siRNAs were diluted into a final volume of 100 μl in Opti-MEM (Gibco). The mixture was incubated at room temperature for 30 min, following which 800 μl of Opti-MEM was added to the mixture. The above transfection solution was overlaid onto cells at a final concentration of 5 nM siRNA. Transfection of HepG2 cells with scrambled siRNA served as negative control. Twelve hours after the transfection, complete media was added to each well. Following which, knockdown efficiency was checked (24 hours later) and cells were exposed to varying concentration of copper (0-1 mM) for 12 h and cell viability was determined using the MTT assay as previously described (37). […]
# [4] = target: T1, PTP1B1-321 (Homo sapiens, UniProt P18031); test: PTP1B phosphatase activity assay, short form; type: biochemical
# T1 construct: C-terminally truncated PTP1B (1-321); made in house; host or cells: Escherichia coli BL21 (DE3)-RIL
# T1 sequence (P18031 1-321): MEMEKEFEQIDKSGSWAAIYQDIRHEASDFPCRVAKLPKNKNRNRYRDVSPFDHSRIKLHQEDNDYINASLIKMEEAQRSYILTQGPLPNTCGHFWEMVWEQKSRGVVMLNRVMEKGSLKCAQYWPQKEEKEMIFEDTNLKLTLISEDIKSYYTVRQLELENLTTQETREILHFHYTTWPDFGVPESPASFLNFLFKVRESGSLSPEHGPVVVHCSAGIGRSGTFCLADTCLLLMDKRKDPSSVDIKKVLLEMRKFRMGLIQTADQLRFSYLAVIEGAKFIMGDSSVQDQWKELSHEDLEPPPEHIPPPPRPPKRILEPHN
# Description: All common reagents were obtained from Thermo Fisher Scientific (Waltham, MA) or Sigma-Aldrich (St. Louis, MO). Difluoro-4-methylumbelliferyl phosphate (DiFMUP) was obtained from Invitrogen (cat #D22065). Solid black 384-well plates (cat #3573) for phosphatase assays were from Corning Incorporated (Corning, NY).
# Wild-type PTP1B containing a His-tag was expressed in Escherichia coli BL21 (DE3)-RIL using LB. Cells were resuspended in lysis buffer (50 mM Hepes pH 7.2, 150 mM NaCl, 10 mM imidazole, 2 mM TCEP) with cOmplete EDTA-free Protease Inhibitor Cocktail (Roche), and then lysed using a sonicator at 4° C. Lysates were clarified by centrifugation. Initial protein purification was by gravity flow, nickel column chromatography. Protein was used immediately or stored at −80° C. in 50 mM HEPES pH 7.4, 100 mM NaCl, 2 mM dithiothreitol and 25% glycerol.
# [5] = test system: insulin receptor β subunit, AKT; test: Insulin signaling in liver of treated mice; type: in vivo
# From the text: The antibodies used in the study were purchased from: Upstate Biotechnology (pTyr, catalog 05-321, clone 4G10); Invitrogen (pY1162/1163-IR-β, catalog 700393, clone 97H9L7); Santa Cruz Biotechnology Inc. (IR-β, catalog sc-711, clone C711); Cell Signaling
# Technology (JAK2, catalog 3230, clone D2E12; p-T308 AKT (catalog 13038, clone D25E6); AKT (catalog 4691, clone C67E7) and Sigma-Aldrich (actin, catalog A2228, clone AC-74).
# as §1
# [6] = test system: TX mice; test: Liver histology; type: in vivo, mouse
# From the text: Liver tissues from wild-type and TX mice from untreated and DPM-1001-treated mice were sectioned and stained with H&E or rhodanine. Whole-slide, digitized images of H&E-stained tissue were captured using the Aperio ScanScope XT automated scanning system (Vista, CA). Image J software was used to quantitate rhodanine staining.
smiles,measurement,setting,value
COC(=O)CCC(C)C1CCC2C3C(O)CC4CC(NCCCCNCc5ccccn5)CCC4(C)C3CCC12C (stereo not shown) [DPM-1001],levels of phospho-Erk,[1],high levels of reduction; also recorded: greater than that seen with 50 μM of bathocuproine disulfonate or 25 μM of TTM
same,glucose tolerance,[2]; D-glucose 2 mg/g,lower rise in blood glucose levels; also recorded: improved glucose tolerance
same,insulin sensitivity (insulin tolerance test),[2]; insulin 0.75 mU/g,enhanced the effect of insulin to reduce blood glucose levels; also recorded: improved
same,protection from copper-induced cell death,[3],able to rescue cells from copper-induced cell death
same,reversibility of inhibition of PTP1B1-321,"[4]; enzyme-inhibitor complex diluted, activity recovery monitored",reversibly
same,time dependent change in the IC50 for PTP1B1-321,[4]; varying incubation times,no obvious time dependent change
same,AKT phosphorylation,[5],phosphorylation of AKT; also recorded: enhanced AKT phosphorylation
same,tyrosine phosphorylation of insulin receptor β subunit,"[5]; insulin-stimulated, orally or intraperitoneally",increased insulin-stimulated insulin receptor phosphorylation; also recorded: marked increase in β-subunit phosphorylation
same,liver morphology,[6]; TX mice,"prevents the enlarged hepatocytes with irregular shape and arrangement large cytoplasmic lipid droplets in liver; also recorded: appeared similar to those from wild-type mice with normal hepatocyte size, shape and arrangement"
same,liver morphology,[6]; wild-type mice,no obvious abnormalities were detected
